Measured values from patent US8242166B2, “C(10) ethyl ester and C(10) cyclopropyl ester substituted taxanes” (Florida State University Research Foundation, Inc., priority 2008, dated 2012).
Read-outs that look alike come from different tables or passages of the source.

What was measured:
HCT116 = assay: MTT cytotoxicity (IC50), HCT116; format: cell-based; conditions: Homo sapiens, HCT-116, 72 h, read-out: IN Vitro IC50 (nm) HCT116
Experimental: (§1) All cell lines were maintained in RPMI-1640 tissue culture medium (TCM, supplemented with antibiotics and 10% fetal bovine serum) and cultured at 37° C. in humidified air containing 5% CO2. To assess the antiproliferative effects of the test compounds, 172 μL of tumor cell suspension (1.45×10^4 cells/ml) were added to each well of a 96-well plate and incubated for 24 h at 37° C. in 5% CO2 in air to allow cells to adhere. Seven 2-fold drug dilutions in TCM/DMSO were performed in triplicate in separate 96-well plates and 28 μL was transferred to the wells containing tumor cells (200 μL final volume/0.1% DMSO). Plates were incubated for 72 h and cell viability was determined by adding 50 μL of warm TCM containing 5 mg/mL MTT (3-[4,5-dimethylthiazol-2-yl]-2,5-diphenyltetrazolium bromide) to each well and incubating for 1 h at 37° C. Plates were processed and the absorbances of the resulting solutions were measured by a plate reader at 570 nm. […] (GraphPad Prism version 4.00 for Windows). Studies were conducted by Taxolog, Inc., Tallahassee, Fla.

PANC-1 = assay: MTT cytotoxicity (IC50), PANC-1; format: cell-based; conditions: Homo sapiens, 72 h, read-out: IN Vitro IC50 (nm) Panc
Experimental: as §1, with “Compound 17932 was tested in four of these cell lines, while the remaining compounds were tested in all of these cell lines. All” for “All”

DLD-1 = assay: MTT cytotoxicity (IC50), DLD-1; format: cell-based; conditions: Homo sapiens
Experimental: as §1, with “Compound 17932 was tested in four of these cell lines, while the remaining compounds were tested in all of these cell lines. All” for “All”

A375 = assay: MTT cytotoxicity (IC50), A375; format: cell-based; conditions: Homo sapiens, A-375
Experimental: as §1, with “Compound 17932 was tested in four of these cell lines, while the remaining compounds were tested in all of these cell lines. All” for “All”

A549 = assay: MTT cytotoxicity (IC50), A549; format: cell-based; conditions: Homo sapiens, 72 h, read-out: IN Vitro IC50 (nm) A549
Experimental: as §1, with “Compound 17932 was tested in four of these cell lines, while the remaining compounds were tested in all of these cell lines. All” for “All”

TK-10 = assay: MTT cytotoxicity (IC50), TK-10; format: cell-based; conditions: Homo sapiens, 72 h, read-out: IN Vitro IC50 (nm) TK10
Experimental: as §1, with “Compound 17932 was tested in four of these cell lines, while the remaining compounds were tested in all of these cell lines. All” for “All”

OVCAR5 = assay: MTT cytotoxicity (IC50), OVCAR5; format: cell-based; conditions: Homo sapiens, OVCAR-5, 72 h, read-out: IN Vitro IC50 (nm) OVCAR5
Experimental: as §1, with “Compound 17932 was tested in four of these cell lines, while the remaining compounds were tested in all of these cell lines. All” for “All”

HOP-18 = assay: MTT cytotoxicity (IC50), HOP-18; format: cell-based; conditions: Homo sapiens, 72 h, read-out: IN Vitro IC50 (nm) HOP18
Experimental: as §1, with “Compound 17932 was tested in four of these cell lines, while the remaining compounds were tested in all of these cell lines. All” for “All”

SK-MEL-28 = assay: MTT cytotoxicity (IC50), SK-MEL-28; format: cell-based; conditions: Homo sapiens, 72 h, read-out: IN Vitro IC50 (nm) ske-mel28
Experimental: as §1, with “Compound 17932 was tested in four of these cell lines, while the remaining compounds were tested in all of these cell lines. All” for “All”

SNB-19 = assay: MTT cytotoxicity (IC50), SNB-19; format: cell-based; conditions: Homo sapiens, 72 h, read-out: IN Vitro IC50 (nm) SNB19
Experimental: as §1, with “Compound 17932 was tested in four of these cell lines, while the remaining compounds were tested in all of these cell lines. All” for “All”

BxPC-3 cancer cell line = assay: MTT cytotoxicity (IC50), BxPC-3 (Oncodesign); format: cell-based; conditions: Homo sapiens
Experimental: BxPC-3 cancer cell line (Source ATCC) and culture medium were purchased and provided by Oncodesign (France).
Tumor cells (5,000 cells per well) were plated in 96-well flat-bottom microtitration plates (Ref 167008, Batch 083310, Nunc, Dutscher, Brumath, France) and incubated at 37° C. for 24 hours before treatment in 100 μl of drug-free RPMI 1640 medium supplemented with 10% FBS. Tumor cell lines were incubated for 72 hours with 10 concentrations of both test substances and TXT (40 to 0.07 nM using ½ step dilutions). Experiments were repeated three times, each assay being issued from quadruplicate. Control cells were treated with the vehicle alone. At the end of treatments, the cytotoxic activity was evaluated by a MTT assay. These studies were conducted at Oncodesign, France.

[1] = test system: human A375 melanoma xenograft; assay: A375 xenograft study e209 (Example 27); conditions: 30 mg/kg iv q4d × 4; for CR (complete regression) / NTR NTRa/u / NTR NTRm / PR (partial regression) / TFS (tumor-free survivor) / TR (treatment-related death): n=6; for % TGD / Median TTE / T-C: vehicle EL
Experimental: The endpoint was a tumor volume of 2,000 mm^3 and the study was terminated on Day 56. Efficacy was assessed by tumor growth delay and the number of partial and complete regressions. Animals with a CR that persisted through Day 56 were classified as long-term tumor-free survivors (TFS).

[2] = MTT, 72 h, read-out: IN Vitro IC50 (nm) DLD1
[3] = Resistance MDR1+, read-out: DLD1 Colon (Table 4, quantity not named; IC50 values as Table 2)
[4] = MTT, 72 h, read-out: IN Vitro IC50 (nm) A375
[5] = Resistance MRP9, read-out: A375 Melanoma (Table 4, quantity not named; IC50 values as Table 2)

| Structure (SMILES) | IC50 (HCT116) [nM] | IC50 (PANC-1) [nM] | IC50 (DLD-1; [2]) [nM] | IC50 (DLD-1; [3]) [nM] | IC50 (A375; [4]) [nM] | IC50 (A375; [5]) [nM] | IC50 (A549) [nM] | IC50 (TK-10) [nM] | IC50 (OVCAR5) [nM] | IC50 (HOP-18) [nM] | IC50 (SK-MEL-28) [nM] | IC50 (SNB-19) [nM] | BW Nadir [1] | MTV(n), Day 56 [1] | CR (complete regression) [1] | NTR NTRa/u [1] | NTR NTRm [1] | PR (partial regression) [1] | TFS (tumor-free survivor) [1] | TR (treatment-related death) [1] | further results |
| --- | --- | --- | --- | --- | --- | --- | --- | --- | --- | --- | --- | --- | --- | --- | --- | --- | --- | --- | --- | --- | --- |
| CC(=O)O[C@@]12CO[C@@H]1C[C@H](O)[C@@]1(C)C(=O)[C@H](OC(=O)C3CC3)C3=C(C)[C@@H](OC(=O)[C@H](O)[C@@H](NC(=O)OC4CCC4)c4cccs4)C[C@@](O)([C@@H](OC(=O)c4ccccc4)C12)C3(C)C (some centres unmarked) [Compound 18365] | 0.4 | 1.2 | 1.1 | 1.1 | 0.6 | 0.6 | 0.5 | 0.5 | 0.3 | 0.7 | 0.9 | 1.1 | −9.8% (14) | 0.00 (6) mm^3 | 5 | 0 | 0 | 0 | 5 | 0 | IC50 (BxPC-3 cancer cell line; BXPC-3, 72 h, Exp 1, MTT, 72 hours, read-out: IC50 (nM) BxPC-3): 0.79 nM; IC50 (BxPC-3 cancer cell line; BXPC-3, 72 h, Exp 2, MTT, 72 hours, read-out: IC50 (nM) BxPC-3): 1.07 nM; IC50 (BxPC-3 cancer cell line; BXPC-3, 72 h, Exp 3, MTT, 72 hours, read-out: IC50 (nM) BxPC-3): 0.99 nM; IC50 (BxPC-3 cancer cell line; BXPC-3, mean of 3 experiments, read-out: IC50 Mean ± SD (nM) BxPC-3): 0.95 ± 0.14 nM; % TGD [1]: 210.08%; Median TTE [1]: 56 days; T-C [1]: 37.94 days |
| CCC(=O)O[C@H]1C(=O)[C@@]2(C)C([C@H](OC(=O)c3ccccc3)[C@]3(O)C[C@H](OC(=O)[C@H](O)[C@@H](NC(=O)OC4CCCC4)c4cccs4)C(C)=C1C3(C)C)[C@]1(OC(C)=O)CO[C@@H]1C[C@@H]2O (some centres unmarked) [Compound 18926] | 0.3 | 0.5 | 0.8 | 0.8 | 0.5 | 0.5 | 0.4 | 0.3 | 0.2 | 1.6 | 0.6 | 1 | 13.3% (18) | 0.00 (6) mm^3 | 6 | 0 | 0 | 0 | 6 | 0 | % TGD [1]: 210.08%; Median TTE [1]: 56 days; T-C [1]: 37.94 days |
